The results in this text go back to patent publication US20250382332A1, “NOVEL ALPHA-FACTOR BASED PEPTIDES WITH ANTIFUNGAL ACTIVITY” (INVAIO SCIENCES, INC., priority 2024, published 2025).

For this assay, the system named is Botrytis cinerea (B05.10). The assay is described as follows: Resazurin antifungal assay of 180 alpha-factor peptide variants towards Botrytis (Example 2). Format: cell-based. Further details: key to active against Botrytis at 15 μM / active against Botrytis at 10 μM: Peptides that showed greater than 90% inhibition were considered active against Botrytis. Conditions: for Inhibition at 10 μM / Inhibition at 15 μM / Inhibition at 20 μM / Inhibition at 50 μM / Inhibition at 100 μM: % inhibition of fungal growth, Botrytis conidia, resazurin; for Inhibition at 10 μM: peptide 10 μM; for Inhibition at 15 μM / active against Botrytis at 15 μM: peptide 15 μM; for Inhibition at 20 μM: peptide 20 μM; for Inhibition at 50 μM: peptide 50 μM; for Inhibition at 100 μM: peptide 100 μM. In a few lines:
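Resazurin viability read-out (570/620 nm fluorescence) after a 24 h, 20° C incubation of B05.10 conidia, 5000 per well, with peptide at final 10-100 μM. Growth inhibition (%) was derived by subtracting conidia-only fluorescence; four replicates per treatment.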
(The colour change of resazurin is a common sign of viable cells or microbes.)

Peptide text beside a SMILES is read from it. Some results are limits rather than exact numbers.

The term Inhibition denotes the percentage by which the read-out fell short of the control. On to `CC[C@H](C)[C@H](NC(=O)[C@H](CCCNC(=N)N)NC(=O)[C@H](CC(C)C)NC(=O)[C@H](Cc1c[nH]c2ccccc12)NC(=O)[C@H](Cc1c[nH]cn1)NC(=O)[C@@H](N)CCCCN)C(=O)N[C@@H](CCCCN)C(=O)N[C@@H](Cc1c[nH]c2ccccc12)C(=O)NCC(=O)N[C@@H](CCC(=O)O)C(=O)N1CCC[C@H]1C(=O)N[C@@H](CCSC)C(=O)N[C@@H](Cc1ccc(O)cc1)C(=O)O` [compound 52] (H-KHWLRIKWGEPMY-OH; N-terminus and C-terminus assumed), for which the “Inhibition at 10 μM” value is reported as less than 90%, the “Inhibition at 15 μM” value is 97.66%, the “Inhibition at 20 μM” value is given as 100% and the “Inhibition at 50 μM” value is listed as 100%. Further, the “Inhibition at 100 μM” value is given as 100% and the “active against Botrytis at 15 μM” value is reported as “active”.

As to `CSCC[C@H](NC(=O)[C@@H]1CCCN1C(=O)[C@H](CCC(N)=O)NC(=O)CNC(=O)[C@@H]1CCCN1C(=O)[C@H](CCCCN)NC(=O)[C@H](CC(C)C)NC(=O)[C@H](CO)NC(=O)[C@H](CC(C)C)NC(=O)[C@H](Cc1ccccc1)NC(=O)[C@H](Cc1c[nH]cn1)NC(=O)[C@@H](N)CCCCN)C(=O)N[C@@H](Cc1ccc(O)cc1)C(=O)O` [compound 107] (H-KHFLSLKPGQPMY-OH; N-terminus and C-terminus assumed), the “Inhibition at 10 μM” value was less than 90%, the “Inhibition at 20 μM” value is recorded as less than 90%, the “Inhibition at 50 μM” value is recorded as less than 90% and the “Inhibition at 100 μM” value came out at 98.74%.

Turning to `CSCC[C@H](NC(=O)[C@@H]1CCCN1C(=O)[C@H](CCC(N)=O)NC(=O)CNC(=O)[C@@H]1CCCN1C(=O)[C@H](CCCCN)NC(=O)[C@H](Cc1ccccc1)NC(=O)[C@H](CCC(=O)O)NC(=O)[C@H](CC(C)C)NC(=O)[C@H](CO)NC(=O)[C@H](Cc1c[nH]cn1)NC(=O)[C@@H](N)CCCCN)C(=O)N[C@@H](Cc1ccc(O)cc1)C(=O)O` [compound 165] (H-KHSLEFKPGQPMY-OH; N-terminus and C-terminus assumed), the “Inhibition at 50 μM” value is less than 90% and the “Inhibition at 100 μM” value was less than 90%.

Regarding `CC[C@H](C)[C@H](NC(=O)[C@H](CCC(N)=O)NC(=O)[C@H](CC(C)C)NC(=O)[C@H](Cc1c[nH]c2ccccc12)NC(=O)[C@H](CO)NC(=O)[C@@H](N)CCCCN)C(=O)N[C@@H](CCCCN)C(=O)N[C@@H](CC(N)=O)C(=O)NCC(=O)N[C@@H](CCC(N)=O)C(=O)N1CCC[C@H]1C(=O)N[C@@H](CCSC)C(=O)N[C@@H](Cc1ccc(O)cc1)C(=O)O` [compound 152] (H-KSWLQIKNGQPMY-OH; N-terminus and C-terminus assumed), the “Inhibition at 50 μM” value was less than 90% and the “Inhibition at 100 μM” value is recorded as less than 90%.

For the compound `CSCC[C@H](NC(=O)[C@@H]1CCCN1C(=O)[C@H](CCC(N)=O)NC(=O)CNC(=O)[C@@H]1CCCN1C(=O)[C@H](Cc1c[nH]cn1)NC(=O)[C@H](CC(C)C)NC(=O)[C@H](CCC(=O)O)NC(=O)[C@H](CC(C)C)NC(=O)CNC(=O)[C@H](CCC(N)=O)NC(=O)[C@@H](N)Cc1c[nH]c2ccccc12)C(=O)N[C@@H](Cc1ccc(O)cc1)C(=O)O` [compound 129] (H-WQGLELHPGQPMY-OH; N-terminus and C-terminus assumed), the “Inhibition at 50 μM” value was less than 90% and the “Inhibition at 100 μM” value was less than 90%.

With `CSCC[C@H](NC(=O)[C@@H]1CCCN1C(=O)[C@H](CCC(N)=O)NC(=O)CNC(=O)[C@@H]1CCCN1C(=O)[C@H](CCCCN)NC(=O)[C@H](Cc1ccccc1)NC(=O)[C@H](CCCCN)NC(=O)[C@H](CC(C)C)NC(=O)[C@H](Cc1c[nH]c2ccccc12)NC(=O)[C@H](Cc1c[nH]cn1)NC(=O)[C@@H](N)CCCCN)C(=O)N[C@@H](Cc1ccc(O)cc1)C(=O)O` [compound 13] (H-KHWLKFKPGQPMY-OH; N-terminus and C-terminus assumed), the “Inhibition at 10 μM” value was less than 90%, the “Inhibition at 15 μM” value was 100%, the “Inhibition at 20 μM” value came out at 100% and the “Inhibition at 50 μM” value was determined as 100%. Further, the “Inhibition at 100 μM” value was 100% and the “active against Botrytis at 15 μM” value is on record as “active”.

On to `CC[C@H](C)[C@H](NC(=O)CNC(=O)[C@@H](N)CCCCN)C(=O)N[C@@H](CC(C)C)C(=O)N[C@H](C(=O)N[C@@H](CC(C)C)C(=O)N[C@@H](CCCCN)C(=O)N1CCC[C@H]1C(=O)NCC(=O)N[C@@H](CCC(N)=O)C(=O)N1CCC[C@H]1C(=O)N[C@@H](CCSC)C(=O)N[C@@H](Cc1ccc(O)cc1)C(=O)O)[C@@H](C)O` [compound 153] (H-KGILTLKPGQPMY-OH; N-terminus and C-terminus assumed), for which the “Inhibition at 50 μM” value is reported as less than 90% and the “Inhibition at 100 μM” value is recorded as less than 90%.

As for `CSCC[C@H](NC(=O)[C@@H]1CCCN1C(=O)[C@H](CCC(N)=O)NC(=O)CNC(=O)[C@@H]1CCCN1C(=O)[C@H](CCCCN)NC(=O)[C@H](CC(C)C)NC(=O)[C@H](CCC(=O)O)NC(=O)[C@H](CC(C)C)NC(=O)[C@H](Cc1ccc(O)cc1)NC(=O)[C@H](Cc1c[nH]cn1)NC(=O)[C@@H](N)CCCCN)C(=O)N[C@@H](Cc1ccc(O)cc1)C(=O)O` [compound 162] (H-KHYLELKPGQPMY-OH; N-terminus and C-terminus assumed), the “Inhibition at 50 μM” value is less than 90% and the “Inhibition at 100 μM” value is recorded as less than 90%.

For the compound `CSCC[C@H](NC(=O)[C@H](CCC(N)=O)NC(=O)[C@@H](N)Cc1c[nH]c2ccccc12)C(=O)N[C@@H](CC(C)C)C(=O)N[C@@H](CCCCN)C(=O)N[C@@H](CC(C)C)C(=O)N[C@@H](CCCCN)C(=O)N[C@@H](Cc1ccc(O)cc1)C(=O)NCC(=O)N[C@@H](CCC(N)=O)C(=O)N1CCC[C@H]1C(=O)N[C@@H](CCSC)C(=O)N[C@@H](Cc1ccc(O)cc1)C(=O)O` [compound 138] (H-WQMLKLKYGQPMY-OH; N-terminus and C-terminus assumed), the “Inhibition at 50 μM” value was less than 90% and the “Inhibition at 100 μM” value is listed as less than 90%.

For `CC[C@H](C)[C@H](NC(=O)[C@H](CCCCN)NC(=O)[C@H](CC(C)C)NC(=O)[C@@H](NC(=O)[C@H](Cc1c[nH]cn1)NC(=O)[C@@H](N)Cc1c[nH]c2ccccc12)[C@@H](C)O)C(=O)N[C@@H](CCCCN)C(=O)N[C@@H](CCCCN)C(=O)NCC(=O)N[C@@H](CCC(=O)O)C(=O)N1CCC[C@H]1C(=O)N[C@@H](CCSC)C(=O)N[C@@H](Cc1ccc(O)cc1)C(=O)O` [compound 15] (H-WHTLKIKKGEPMY-OH; N-terminus and C-terminus assumed), the “Inhibition at 10 μM” value is reported as less than 90%, the “Inhibition at 20 μM” value is recorded as less than 90%, the “Inhibition at 50 μM” value came to 100% and the “Inhibition at 100 μM” value is listed as 100%.

With `CSCC[C@H](NC(=O)[C@@H]1CCCN1C(=O)[C@H](CCC(N)=O)NC(=O)CNC(=O)[C@@H]1CCCN1C(=O)[C@H](CCCCN)NC(=O)[C@H](CC(C)C)NC(=O)[C@H](CCCNC(=N)N)NC(=O)[C@H](CC(C)C)NC(=O)[C@@H](NC(=O)[C@H](Cc1c[nH]cn1)NC(=O)[C@@H](N)CCCCN)[C@@H](C)O)C(=O)N[C@@H](Cc1ccc(O)cc1)C(=O)O` [compound 83] (H-KHTLRLKPGQPMY-OH; N-terminus and C-terminus assumed), the “Inhibition at 10 μM” value is listed as less than 90%, the “Inhibition at 15 μM” value is recorded as less than 90%, the “Inhibition at 20 μM” value was determined as 99.92% and the “Inhibition at 50 μM” value is on record as 100%. Moreover, the “Inhibition at 100 μM” value came out at 100%.

Consider `CSCC[C@H](NC(=O)[C@H](CC(C)C)NC(=O)[C@H](CCC(N)=O)NC(=O)[C@@H](NC(=O)[C@H](Cc1c[nH]c2ccccc12)NC(=O)[C@H](Cc1c[nH]cn1)NC(=O)[C@@H](N)CCCCN)C(C)C)C(=O)N[C@@H](CCCCN)C(=O)NCC(=O)N[C@@H](CCC(N)=O)C(=O)N1CCC[C@H]1C(=O)N[C@@H](CCSC)C(=O)N[C@@H](Cc1ccc(O)cc1)C(=O)O` [compound 21] (H-KHWVQLMKGQPMY-OH; N-terminus and C-terminus assumed), for which the “Inhibition at 10 μM” value was less than 90%, the “Inhibition at 20 μM” value is recorded as less than 90%, the “Inhibition at 50 μM” value is 100% and the “Inhibition at 100 μM” value is listed as 100%.

On to `CC[C@H](C)[C@H](NC(=O)[C@H](CCC(=O)O)NC(=O)CNC(=O)[C@H](Cc1c[nH]c2ccccc12)NC(=O)[C@H](Cc1c[nH]cn1)NC(=O)[C@@H]1CCCN1)C(=O)N[C@@H](CCCCN)C(=O)N1CCC[C@H]1C(=O)NCC(=O)N[C@@H](CCC(N)=O)C(=O)N[C@@H](CO)C(=O)N[C@@H](CCSC)C(=O)N[C@@H](Cc1ccc(O)cc1)C(=O)O` [compound 139] (H-PHWGEIKPGQSMY-OH; N-terminus and C-terminus assumed), for which the “Inhibition at 50 μM” value is listed as less than 90% and the “Inhibition at 100 μM” value is reported as less than 90%.

With `CSCC[C@H](NC(=O)[C@@H]1CCCN1C(=O)[C@H](CCC(N)=O)NC(=O)CNC(=O)[C@@H](NC(=O)[C@H](CCCNC(=N)N)NC(=O)[C@H](CC(C)C)NC(=O)[C@H](CC(N)=O)NC(=O)[C@@H](NC(=O)[C@H](Cc1c[nH]c2ccccc12)NC(=O)[C@H](CCCCN)NC(=O)[C@@H](N)Cc1c[nH]c2ccccc12)C(C)C)[C@@H](C)O)C(=O)N[C@@H](Cc1ccc(O)cc1)C(=O)O` [compound 65] (H-WKWVNLRTGQPMY-OH; N-terminus and C-terminus assumed), the “Inhibition at 10 μM” value was less than 90%, the “Inhibition at 20 μM” value was less than 90%, the “Inhibition at 50 μM” value is given as 100% and the “Inhibition at 100 μM” value is listed as 100%.

Regarding `CC[C@H](C)[C@H](NC(=O)[C@H](CCC(N)=O)NC(=O)[C@H](CC(C)C)NC(=O)[C@H](Cc1c[nH]c2ccccc12)NC(=O)[C@H](CCCNC(=N)N)NC(=O)[C@@H]1CCCN1)C(=O)N[C@@H](CCCCN)C(=O)N[C@@H](CCCCN)C(=O)NCC(=O)N[C@@H](CCC(N)=O)C(=O)N[C@@H](CO)C(=O)N[C@@H](CCSC)C(=O)N[C@@H](Cc1ccc(O)cc1)C(=O)O` [compound 63] (H-PRWLQIKKGQSMY-OH; N-terminus and C-terminus assumed), the “Inhibition at 10 μM” value is given as less than 90%, the “Inhibition at 20 μM” value was less than 90%, the “Inhibition at 50 μM” value turned out to be 100% and the “Inhibition at 100 μM” value came out at 100%.
